Data published in patent US8383636B2, “Acyclic amine inhibitors of 5-methytioadenosine phosphorylase and nucleosidase” (priority 2006, dated 2013).

Assays:
E. coli MTAN = molecular target: T1, E. coli MTAN (Escherichia coli, UniProt P0AF12); test: Inhibition constants with E. coli MTAN (xanthine oxidase-coupled assay); assay type: biochemical; conditions: 25° C., pH 7.5, MTA as substrate
T1 construct: made in house
Procedure: (§1) E. coli MTAN and human MTAP were obtained according to the reported methods (Singh, et al, Biochemistry 44, 11647-11659 (2005); Singh and Schramm J. Am. Chem. Soc. 128, 14691-14696 (2006). The MTAN gene sequences from N. meningitides MC58 and H. pylori J99 were amplified from genomic DNA (ATCC) and cloned into a modified pET-32 vector to direct high-level expression of MTAN with a non-cleavable N-terminal 6His tag. 1.5 L cultures of BL21(DE3) harbouring MTAN constructs were induced with 0.5 mM IPTG for 20 hours at 25° C. with vigorous shaking. Cell pellets were washed and lysed in 40 mL lysis buffer (25 mM HEPES, 0.5M NaCl, 10 mM imidazole pH 7.6, protease inhibitors and 0.25 mM TCEP) with the use of a cell disrupter at 15K psi. After removal of cell debris by centrifugation, the soluble cell lysates were loaded onto nickel-charged chelating sepharose (GE Healthcare) and washed with lysis buffer containing 20-150 mM imidazole. The 6His-MTANs were eluted in 250 mM imidazole, desalted using a Sephadex G-15 (GE Healthcare) gel filtration column, equilibrated with low salt buffer (100 mM HEPES, 30 mM KCL, pH 7.6) and concentrated to 40 mg/mL.
(§2) Inhibitor concentrations were obtained from the absorbance at 274 nm with extinction coefficient of 8.5 mM^−1 cm^−1 for 9-deazaadenine moiety.
(§3) MTAN activities were assayed as reported previously (Singh et al (2006) Biochemistry 45, 12929-12941; Singh, et al (2005) J. Biol. Chem. 280, 18265-18273). Briefly, all experiments were carried out at 25° C., in 1 mL total reaction volume containing 100 mM HEPES buffer, pH 7.5 and 50 mM KCl with 5′-deoxymethylthioadenosine (MTA) as substrate. Kinetic constants (kcat and Km) were determined by monitoring MTA hydrolysis at 274 nm where ΔεMTA=1.6 mM^−1 cm^−1. For measuring dissociation constant (Kd) of inhibitors, a xanthine oxidase-coupled assay was carried out. In this assay, saturating levels (1-2 mM) of MTA and various concentrations of inhibitor were mixed with xanthine oxidase (0.5 unit/mL), which is used to convert the MTAN product adenine to 2,8-dihydroxyadenine (ε2,8-dihydroxadenine=15.2 mM^−1 cm^−1 at 293 nm). Reactions were initiated by the addition of 8-10 nM MTAN, and the absorbance at 293 was monitored. Control experiments were carried out in the absence of either inhibitor or MTAN.
(§4) [formula] where vs′ and vs are steady state rates in the presence, and absence of inhibitor, respectively; Km is substrate Michaelis constant which was obtained as described above; [S] and [I] are the concentrations of the substrate MTA and inhibitor, respectively. […] All data fitting was carried out with KaleidaGraph™ ver. 3.5 (Synergy Software).

N. meningitides MTAN = N. meningitides MTAN (Neisseria meningitidis, UniProt Q9K054); test: Inhibition constants with N. meningitides MTAN (xanthine oxidase-coupled assay); assay type: biochemical, N. meningitides MC58; conditions: 25° C., pH 7.5, MTA as substrate
Procedure: as §1, §2, §3, §4

human MTAP = molecular target: T2, human MTAP (Homo sapiens, UniProt Q13126); test: Inhibition constants with MTAP (continuous spectrophotometric assay); assay type: biochemical
T2 construct: made in house
T2 sequence (Q13126 1-283): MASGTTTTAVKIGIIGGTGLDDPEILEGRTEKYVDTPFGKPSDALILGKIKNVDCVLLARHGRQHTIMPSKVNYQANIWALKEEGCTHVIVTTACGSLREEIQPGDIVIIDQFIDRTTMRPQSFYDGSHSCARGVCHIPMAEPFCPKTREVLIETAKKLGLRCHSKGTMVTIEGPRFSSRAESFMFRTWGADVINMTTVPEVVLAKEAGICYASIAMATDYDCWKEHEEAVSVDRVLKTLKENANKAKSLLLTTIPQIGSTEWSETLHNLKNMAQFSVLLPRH
Procedure: After removal of cell debris by centrifugation, the soluble cell lysates were loaded onto nickel-charged chelating sepharose (GE Healthcare) and washed with lysis buffer containing 20-150 mM imidazole. The 6His-MTANs were eluted in 250 mM imidazole, desalted using a Sephadex G-15 (GE Healthcare) gel filtration column, equilibrated with low salt buffer (100 mM HEPES, 30 mM KCL, pH 7.6) and concentrated to 40 mg/mL.
Continuous spectrophotometric assays were used to characterize the inhibitors of the invention and […] inhibition of MTAP.

N. meningitides MTAN, sequence (Q9K054 entry or part of it): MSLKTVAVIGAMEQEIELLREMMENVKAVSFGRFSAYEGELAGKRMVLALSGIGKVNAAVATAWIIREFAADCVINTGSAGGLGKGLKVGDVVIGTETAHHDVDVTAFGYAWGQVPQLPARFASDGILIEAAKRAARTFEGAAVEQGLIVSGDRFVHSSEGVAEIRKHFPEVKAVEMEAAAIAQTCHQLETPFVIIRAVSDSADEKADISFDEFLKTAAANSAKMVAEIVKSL
T1 sequence (P0AF12 whole entry): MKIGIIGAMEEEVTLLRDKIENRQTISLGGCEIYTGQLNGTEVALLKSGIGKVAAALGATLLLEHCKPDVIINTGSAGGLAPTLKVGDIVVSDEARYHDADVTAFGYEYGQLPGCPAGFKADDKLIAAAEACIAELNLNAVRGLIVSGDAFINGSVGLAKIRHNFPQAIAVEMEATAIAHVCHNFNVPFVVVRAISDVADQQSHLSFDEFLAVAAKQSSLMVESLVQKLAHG

SMILES	Kd (E. coli MTAN)	Kd (N. meningitides MTAN)	Kd (human MTAP)
CSC[C@@H](CNCc1c[nH]c2c(N)ncnc12)[C@@H](O)CO (racemic) [Example 3, (2RS,3SR)-4-[(4-amino-5H-pyrrolo[3,2-d]pyrimidin-7-yl)methylamino]-3-(methylthiomethyl)butane-1,2-diol]	0.009 ± 0.002 µM	0.005 ± 0.001 µM	–
CSC[C@H](O)[C@@H](CO)CNCc1c[nH]c2c(N)ncnc12 (racemic) [Example 9, (2RS,3RS)-2-{[(4-amino-5H-pyrrolo[3,2-d]pyrimidin-7-yl)methylamino]methyl}-4-(methylthio)butane-1,3-diol]	0.025 ± 0.002 µM	0.0128 ± 0.0009 µM	0.278 ± 0.027 µM
CSC[C@H](O)[C@@H](CO)CN(C)Cc1c[nH]c2c(N)ncnc12 (racemic) [Example 10, (2RS,3RS)-2-((((4-amino-5H-pyrrolo[3,2-d]pyrimidin-7-yl)methyl)(methyl)amino)methyl)-4-(methylthio)butane-1,3-diol]	0.065 ± 0.006 µM	0.132 ± 0.009 µM	–
CSCC(CO)(CO)NCc1c[nH]c2c(N)ncnc12 [Example 1, 2-((4-amino-5H-pyrrolo[3,2-d]pyrimidin-7-yl)methylamino)-2-(methylthiomethyl)propane-1,3-diol]	0.0058 ± 0.0008 µM	0.004 ± 0.002 µM	0.034 ± 0.024 µM
CSC[C@@H](O)CNCc1c[nH]c2c(N)ncnc12 [Example 2, (S)-1-((4-amino-5H-pyrrolo[3,2-d]pyrimidin-7-yl)methylamino)-3-(methylthio)propan-2-ol]	0.004 ± 0.0005 µM	0.0036 ± 0.0004 µM	0.06 ± 0.008 µM
CSC[C@@H](CN(C)Cc1c[nH]c2c(N)ncnc12)[C@@H](O)CO [Example 4, (2R,3S)-4-(((4-amino-5H-pyrrolo[3,2-d]pyrimidin-7-yl)methyl)(methyl)amino)-3-(methylthiomethyl)butane-1,2-diol]	2.3 ± 0.6 µM	–	–
CSC[C@H](O)[C@H](CO)NCc1c[nH]c2c(N)ncnc12 [Example 7, (2S,3R)-2-((4-amino-5H-pyrrolo[3,2-d]pyrimidin-7-yl)methylamino)-4-(methylthio)butane-1,3-diol]	–	–	0.087 ± 0.011 µM
CSC[C@@H](O)[C@@H](CO)N(C)Cc1c[nH]c2c(N)ncnc12 [Example 8, (2R,3S)-2-(((4-amino-5H-pyrrolo[3,2-d]pyrimidin-7-yl)methyl)(methyl)amino)-4-(methylthio)butane-1,3-diol]	0.062 ± 0.005 µM	0.0193 ± 0.0003 µM	0.088 ± 0.021 µM
CSC[C@H](O)[C@@H](O)CN(C)Cc1c[nH]c2c(N)ncnc12 [Example 11, (2S,3R)-1-(((4-amino-5H-pyrrolo[3,2-d]pyrimidin-7-yl)methyl)(methyl)amino)-4-(methylthio)butane-2,3-diol]	0.202 ± 0.035 µM	–	–
CSC[C@H](CO)N[C@H](CO)c1c[nH]c2c(N)ncnc12 [Example 12, (S)-2-((S)-1-(4-amino-5H-pyrrolo[3,2-d]pyrimidin-7-yl)-2-hydroxyethylamino)-3-(methylthio)propan-1-ol]	0.154 ± 0.015 µM	0.047 ± 0.004 µM	0.13 ± 0.02 µM
